# Laboratory results from patent publication US20260217697A1, “COMPOUNDS COMPRISING HETEROARYL RINGS AND COMPOSITIONS AND METHODS THEREOF” (lonGen Therapeutics Co., Ltd., priority 2022, published 2026).
# Target: T1, hTRPV3 (Homo sapiens, UniProt Q8NET8)
# T1 construct: The commercially available plasmid with the full-length cDNA of hTRPV3 (791 aa) (NM_001258205.2); host or cells: HEK293T
# T1 sequence (Q8NET8 1-791 isoform Q8NET8-2): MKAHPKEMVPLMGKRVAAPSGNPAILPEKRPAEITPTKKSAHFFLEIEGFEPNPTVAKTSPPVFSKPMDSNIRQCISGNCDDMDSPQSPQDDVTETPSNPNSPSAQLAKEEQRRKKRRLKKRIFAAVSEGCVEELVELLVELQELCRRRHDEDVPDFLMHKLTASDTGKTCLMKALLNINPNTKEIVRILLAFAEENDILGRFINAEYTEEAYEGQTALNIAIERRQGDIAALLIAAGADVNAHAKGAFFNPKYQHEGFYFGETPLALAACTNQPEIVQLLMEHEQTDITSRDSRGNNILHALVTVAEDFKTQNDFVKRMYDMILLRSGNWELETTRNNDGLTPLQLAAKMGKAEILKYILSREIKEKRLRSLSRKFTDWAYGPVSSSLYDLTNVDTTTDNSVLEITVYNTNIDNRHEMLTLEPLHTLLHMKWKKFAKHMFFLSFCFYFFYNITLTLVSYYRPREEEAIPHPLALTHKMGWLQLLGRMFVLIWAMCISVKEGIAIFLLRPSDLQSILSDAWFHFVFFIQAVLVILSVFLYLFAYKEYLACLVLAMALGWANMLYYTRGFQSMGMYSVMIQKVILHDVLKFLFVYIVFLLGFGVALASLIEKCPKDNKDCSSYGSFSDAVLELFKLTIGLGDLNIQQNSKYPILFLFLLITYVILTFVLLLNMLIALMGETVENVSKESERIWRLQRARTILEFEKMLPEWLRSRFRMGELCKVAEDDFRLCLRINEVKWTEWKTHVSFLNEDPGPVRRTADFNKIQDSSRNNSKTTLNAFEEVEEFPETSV
# Assay: Whole-cell patch-clamp recording of hTRPV3 current in transfected HEK293T cells (2-APB induced)
# Assay type: cell-based
# Conditions: current induced by 300 μM 2-APB, compounds tested up to 10 μM, room temperature
# Method: Various technologies can be utilized to assess TRPV3 activation in accordance with the present disclosure. For example, in some embodiments, compounds are assessed in in vitro patch clamp experiments. Certain useful procedures are described herein as examples.
# In some embodiments, whole-cell patch-clamp recordings were used to detect the current through hTRPV3 channels in the HEK293T cell line transfected with hTRPV3 cDNA and evaluate the exact blocking effect of compounds on hTRPV3. In some embodiments, a perfusion system was adopted to control the extracellular solution, including the addition of the agonist and different antagonists.
# HEK293T cells were cultured in a Dulbecco's modified Eagle's medium containing 10% fetal bovine serum (Thermo Scientific) and 1% penicillin/streptomycin (Thermo Scientific) at 37° C. with 5% CO2. The commercially available plasmid with the full-length cDNA of hTRPV3 (791 aa) (NM_001258205.2) was purchased from OriGene Technologies. The transfection of hTRPV3 plasmids was conducted using Lipofectamine™ 3000 following the manufacturer's instructions (Invitrogen).
# Whole-cell patch-clamp experiments were performed 18 h post-transfection, using a MultiClamp 700B amplifier driven by pClamp 11 software (Molecular Devices). In order to achieve good single-cell physical separation, HEK293T cells with hTRPV3 expression were digested and then re-plated at low density on glass coverslips. Electrodes were pulled from borosilicate glass with a P-97 micropipette puller (Sutter Instruments) and those with resistances of 3-5 MΩ are used for experiments. In some embodiments, an Ag—AgCl wire was used as a reference electrode and signals are filtered using a 2.9 kHz low-pass Bessel filter. Membrane potential was held at 0 mV. For recording of agonist-induced activation and inhibition by different test compounds, currents were elicited by a protocol consisting of a 400-ms step to +80 mV, followed by a 400-ms step to −80 mV at 2-s intervals. both pipette and bath solutions contained 130 mM NaCl, 0.3 mM EDTA, and 3 mM HEPES (buffered to pH 7.4 with NaOH). All recordings were made at room temperature.
# All patch-clamp recordings were analyzed using the Clampfit software and GraphPad Prism 6.0 software. Specifically, data are analyzed by calculating the degree of current amplitude after the test compound addition compared with the unblocked agonist-induced current amplitude. The resulting blocking percentage at each concentration was used to make a concentration-response analysis and fitted to the Hill equation: blocking percentage=minimum blocking percentage+ (maximum blocking percentage-minimum blocking percentage)/(1+10^(Hill slope* […])). The minimum blocking percentage is 0% and maximum blocking percentage is 100%, while the Hill slope and the IC50 were determined as the curve fitting routine. Compounds of interest were tested against hTRPV3 at concentrations up to 10 μM, and certain data was used to estimate IC50 as described herein.
row,Compound,IC50 [nM]
1,"COc1ncnc(OC)c1C(=O)Nc1nc2c(s1)C1(CCCCCC1)Oc1cc(C(F)(F)F)ccc1-2 [compound 26, 4,6-dimethoxy-N-(7-(trifluoromethyl)spiro[chromeno[4,3-d]thiazole-4,1′-cycloheptan]-2-yl)pyrimidine-5-carboxamide]",100 to 1000
2,"COc1ncnc(OC)c1C(=O)Nc1nc2c(s1)C1(CCN(C(=O)OC(C)(C)C)CC1)Oc1cc(C(F)(F)F)ccc1-2 [compound 27, tert-butyl 2-(4,6-dimethoxypyrimidine-5-carboxamido)-7-(trifluoromethyl)spiro[chromeno[4,3-d]thiazole-4,4′-piperidine]-1′-carboxylate]",< 100
3,"C=CCCC1Oc2cc(C(F)(F)F)ccc2-c2nc(NC(=O)c3c(OC)ncnc3OC)sc21 (stereo not drawn) [compound 28, N-(4-(but-3-en-1-yl)-7-(trifluoromethyl)-4H-chromeno[4,3-d]thiazol-2-yl)-4,6-dimethoxypyrimidine-5-carboxamide]",100 to 1000
4,"COc1ncnc(OC)c1C(=O)Nc1nc2c(s1)C(CCc1ccccc1)Oc1cc(C(F)(F)F)ccc1-2 (stereo not drawn) [compound 29, 4,6-dimethoxy-N-(4-phenethyl-7-(trifluoromethyl)-4H-chromeno[4,3-d]thiazol-2-yl)pyrimidine-5-carboxamide]",100 to 1000
5,"COc1ncnc(OC)c1C(=O)Nc1nc2c(s1)C1(CCC(OCc3ccccc3)CC1)Oc1cc(C(F)(F)F)ccc1-2 (stereo not drawn) [compound 30, N-(4′-(benzyloxy)-7-(trifluoromethyl)spiro[chromeno[4,3-d]thiazole-4,1′-cyclohexan]-2-yl)-4,6-dimethoxypyrimidine-5-carboxamide]",100 to 1000
6,"CCC1CCC2(CC1)Oc1cc(C(F)(F)F)ccc1-c1nc(NC(=O)c3c(OC)ncnc3OC)sc12 (stereo not drawn) [compound 31, N-(4′-ethyl-7-(trifluoromethyl)spiro[chromeno[4,3-d]thiazole-4,1′-cyclohexan]-2-yl)-4,6-dimethoxypyrimidine-5-carboxamide]",100 to 1000
7,"CCOC(=O)C1CCC2(CC1)Oc1cc(C(F)(F)F)ccc1-c1nc(NC(=O)c3c(OC)ncnc3OC)sc12 (stereo not drawn) [compound 32, ethyl 2-(4,6-dimethoxypyrimidine-5-carboxamido)-7-(trifluoromethyl)spiro[chromeno[4,3-d]thiazole-4,1′-cyclohexane]-4′-carboxylate]",< 100
8,"COc1ncnc(OC)c1C(=O)Nc1nc2c(s1)C1(CCC(C)CC1)Oc1cc(C(F)(F)F)ccc1-2 (stereo not drawn) [compound 33, 4,6-dimethoxy-N-(4′-methyl-7-(trifluoromethyl)spiro[chromeno[4,3-d]thiazole-4,1′-cyclohexan]-2-yl)pyrimidine-5-carboxamide]",100 to 1000
9,"COc1ncnc(OC)c1C(=O)Nc1nc2c(s1)C1(CCC(C)(C)CC1)Oc1cc(C(F)(F)F)ccc1-2 [compound 34, N-(4′,4′-dimethyl-7-(trifluoromethyl)spiro[chromeno[4,3-d]thiazole-4,1′-cyclohexan]-2-yl)-4,6-dimethoxypyrimidine-5-carboxamide]",100 to 1000
10,"COc1ncnc(OC)c1C(=O)Nc1nc2c(s1)C1(CCCC(C)(C)C1)Oc1cc(C(F)(F)F)ccc1-2 (stereo not drawn) [compound 35, N-(3′,3′-dimethyl-7-(trifluoromethyl)spiro[chromeno[4,3-d]thiazole-4,1′-cyclohexan]-2-yl)-4,6-dimethoxypyrimidine-5-carboxamide]",100 to 1000
11,"COc1ncnc(OC)c1C(=O)Nc1nc2c(s1)C1(CCC(c3ccc(C)cc3)CC1)Oc1cc(C(F)(F)F)ccc1-2 (stereo not drawn) [compound 36, 4,6-dimethoxy-N-(4′-(p-tolyl)-7-(trifluoromethyl)spiro[chromeno[4,3-d]thiazole-4,1′-cyclohexan]-2-yl)pyrimidine-5-carboxamide]",100 to 1000
12,"COc1ncnc(OC)c1C(=O)Nc1nc2c(s1)C1(CC(C)CC(C)C1)Oc1cc(C(F)(F)F)ccc1-2 (stereo not drawn) [compound 37, N-(3′,5′-dimethyl-7-(trifluoromethyl)spiro[chromeno[4,3-d]thiazole-4,1′-cyclohexan]-2-yl)-4,6-dimethoxypyrimidine-5-carboxamide]",100 to 1000
13,"CCC1CCCC2(C1)Oc1cc(C(F)(F)F)ccc1-c1nc(NC(=O)c3c(OC)ncnc3OC)sc12 (stereo not drawn) [compound 38, N-(3′-ethyl-7-(trifluoromethyl)spiro[chromeno[4,3-d]thiazole-4,1′-cyclohexan]-2-yl)-4,6-dimethoxypyrimidine-5-carboxamide]",100 to 1000
14,"COc1ncnc(OC)c1C(=O)Nc1nc2c(s1)C1(CCCC(NC(=O)OCc3ccccc3)C1)Oc1cc(C(F)(F)F)ccc1-2 (stereo not drawn) [compound 39, benzyl(2-(4,6-dimethoxypyrimidine-5-carboxamido)-7-(trifluoromethyl)spiro[chromeno[4,3-d]thiazole-4,1′-cyclohexan]-3′-yl)carbamate]",100 to 1000
15,"COc1ncnc(OC)c1C(=O)Nc1nc2c(s1)C1(CCC(F)(F)CC1)Oc1cc(C(F)(F)F)ccc1-2 [compound 40, N-(4′,4′-difluoro-7-(trifluoromethyl)spiro[chromeno[4,3-d]thiazole-4,1′-cyclohexan]-2-yl)-4,6-dimethoxypyrimidine-5-carboxamide]",100 to 1000
16,"CCCCCCC1(C)Oc2cc(C(F)(F)F)ccc2-c2nc(NC(=O)c3c(OC)ncnc3OC)sc21 (stereo not drawn) [compound 41, N-(4-hexyl-4-methyl-7-(trifluoromethyl)-4H-chromeno[4,3-d]thiazol-2-yl)-4,6-dimethoxypyrimidine-5-carboxamide]",100 to 1000
17,"COc1ncnc(OC)c1C(=O)Nc1nc2c(s1)C(C)(CCc1ccccc1)Oc1cc(C(F)(F)F)ccc1-2 (stereo not drawn) [compound 42, 4,6-dimethoxy-N-(4-methyl-4-phenethyl-7-(trifluoromethyl)-4H-chromeno[4,3-d]thiazol-2-yl)pyrimidine-5-carboxamide]",100 to 1000
18,"C=CCCOc1ncnc(OC)c1C(=O)Nc1nc2c(s1)C1(CCCCC1)Oc1cc(C(F)(F)F)ccc1-2 [compound 43, 4-(but-3-en-1-yloxy)-6-methoxy-N-(7-(trifluoromethyl)spiro[chromeno[4,3-d]thiazole-4,1′-cyclohexan]-2-yl)pyrimidine-5-carboxamide]",100 to 1000
19,"C=CCCC1(C)Oc2cc(C(F)(F)F)ccc2-c2nc(NC(=O)c3c(OC)ncnc3OC)sc21 (stereo not drawn) [compound 44, N-(4-(but-3-en-1-yl)-4-methyl-7-(trifluoromethyl)-4H-chromeno[4,3-d]thiazol-2-yl)-4,6-dimethoxypyrimidine-5-carboxamide]",< 100
20,"COc1ncnc(OC)c1C(=O)Nc1nc2c(s1)C1(CCNCC1)Oc1cc(C(F)(F)F)ccc1-2 [compound 45, 4,6-dimethoxy-N-(7-(trifluoromethyl)spiro[chromeno[4,3-d]thiazole-4,4′-piperidin]-2-yl)pyrimidine-5-carboxamide]",≥ 10000
21,"COc1ncnc(OC)c1C(=O)Nc1nc2c(s1)C1(CCN(C)CC1)Oc1cc(C(F)(F)F)ccc1-2 [compound 46, 4,6-dimethoxy-N-(1′-methyl-7-(trifluoromethyl)spiro[chromeno[4,3-d]thiazole-4,4′-piperidin]-2-yl)pyrimidine-5-carboxamide]",1000 to 10000
